The record followed here is publication PMC6832960, “The Fragment-Based Development of a Benzofuran Hit as a New Class of Escherichia coli DsbA Inhibitors” (Molecules, 2019).

Series [1] in a line: Solubility noted in the HSQC titration. Conditions: HSQC titration buffer. The format is physicochemical. The text has this: The ligand efficiency (LE) ranged from 0.15 to 0.24 kcal mol^−1 HAC^−1. […] Biophysical characterisation of 25 is illustrated in Figure 2. […] Alkyl substituents at C-6 flipped the compound orientation within the hydrophobic groove and disrupt the polar interaction between the imidazole side chain of His32 and carboxyl group of the compound present in the 25 co-structure (Figure 1C). […] It was evident in the co-crystal structure of p-anisidine 16 that the p-methoxy group had caused the benzofuran scaffold to shift further along the hydrophobic groove, possibly disrupting the π-stacking interaction with His32 and polar interactions with Gln164 (Figure 1B).

Series [2] deals with T1, EcDsbA (Escherichia coli, UniProt P0AEG4).
T1 construct: made in house; protein recovered from the periplasm of the expressing cells
T1 sequence (P0AEG4 20-208): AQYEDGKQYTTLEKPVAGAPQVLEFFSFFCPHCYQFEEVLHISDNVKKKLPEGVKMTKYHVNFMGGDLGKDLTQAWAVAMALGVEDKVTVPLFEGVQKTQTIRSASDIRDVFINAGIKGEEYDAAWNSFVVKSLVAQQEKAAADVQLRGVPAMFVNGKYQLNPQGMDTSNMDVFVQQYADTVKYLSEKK
As to the kind of experiment: CPMG ligand-detected NMR binding. The conditions noted are these: compound 500 µM, unlabelled EcDsbA 10 µM, 298 K, spin-lock 350 ms. The source says:
(§1) To validate the binding of benzofuran analogues, three ligand-detected NMR methods, saturation-transfer difference (STD), Carr–Purcell–Meiboom–Gill (CPMG), and water–ligand observed via gradient spectroscopy (waterLOGSY), were employed to detect protein-ligand binding between the benzofurans and EcDsbA (Figure 2C). These experiments were designed as a primary screening tool to select analogues to undergo further affinity evaluation and prioritise compounds for crystal soaking. […] In a good agreement with this finding, eight out of nine benzofurans that passed all three ligand-detected experiments have their co-crystal structures successfully solved; in contrast, five compounds that failed two ligand-detected experiments only have one co-structure solved (Table 2).
(§2) For ligand-detected NMR spectroscopy, two samples (compound alone and compound + protein) were prepared for each compound. Unlabelled EcDsbA was prepared at 10 µM in a buffer of 50 mM sodium phosphate, pH 6.8, 25 mM NaCl, 100 µM 4,4-dimethyl 4-silapentane-1-sulfonic acid (DSS), and 10% ^2H2O. Compound was added to the protein sample to achieve final concentration of 500 µM (2% ^2H6-DMSO). ^1H 1D spectrum was acquired for each compound at 500 µM as a reference spectrum. All ligand-detected NMR experiments (STD, CPMG, and waterLOGSY) were acquired at 298 K on a Bruker Avance III 600 MHz NMR spectrometer equipped with a 5 mm TXI CryoProbe (Bruker, Billerica, MA, USA). STD spectra were acquired with 3 s of saturation at 1 ppm (on-resonance) and 33.3 ppm (off-resonance). WaterLOGSY spectra were acquired for compound alone and compound + protein with a 0.52 s acquisition time, 3 s relaxation delay, and 3 s Nuclear Overhauser effect (NOE) mixing time. CPMG spectra for compound alone and compound + protein were acquired with a constant spin echo delay of 1 ms and spin-lock period of 350 ms. The data was analysed using Topspin3.5 (Bruker) and DSS was used to reference the spectra.

Series [3] addresses T1, EcDsbA. As to the kind of experiment: STD ligand-detected NMR binding. The conditions noted are these: compound 500 µM, unlabelled EcDsbA 10 µM, 298 K.
Source text: as §1, §2

For series [4], the target named is T1, EcDsbA. As to the kind of experiment: Compound soaking into EcDsbA crystals and X-ray diffraction. Format: binding. Conditions: crystals soaked with compound at 10 mM (5% DMSO) for 3–6 h. The text has this:
The synthesised analogues were soaked into crystals of EcDsbA and X-ray diffraction data was collected for each analogue in order to determine their site of binding. […] The carboxy moiety of 15 was oriented towards the left-hand side of the binding groove, where more polar residues are located. The phenyl ring of the aniline moiety occupied the hydrophobic end of the binding pocket with the nitrogen atom of the amine linker positioned in close proximity to Gln35. […] Although anisidine 16 was occupying a larger region of the EcDsbA binding groove, the shift appeared to have interrupted the π-stacking interactions the benzofuran was making with the His32 side chain previously (Figure 1B and Figure S1).
EcDsbA was crystallised as previously described. Briefly, 1 µL of 30 mg/mL EcDsbA was mixed with an equal volume of crystallisation buffer (11–13% PEG8000, 5–7.5% glycerol, 1 mM CuCl2, 100 mM, sodium cacodylate pH 6.1) and equilibrated against 500 µL of reservoir buffer at 20 °C using hanging drop vapour diffusion. For compound soaking, crystals were transferred into 2 µL drops of 24% PEG8000, 22% glycerol, and 100 mM sodium cacodylate (pH 6.1) containing a compound of interest at the final concentration of 10 mM (5% DMSO) and were incubated for 3–6 h. Crystals were mounted on loops and flash-cooled in liquid nitrogen.
Datasets were collected at the Australian synchrotron on MX1 and MX2 beamlines using the Blue-Ice software (Irvine, CA, USA). MX1 beamline was equipped with an ADSC Quantum 210r detector and MX2 with an ADSC Quantum 315r detector. All datasets were indexed and integrated with iMOSFLM [32] or XDS [33]—and scaled using AIMLESS [34, 35] or SCALA [36]. Phasing was performed by molecular replacement with Phaser using the previously solved structure of EcDsbA as a search model (PDB code 1FVK). The final structure was obtained after several rounds of manual model building using Coot and refinement in phenix.refine. Structures, factors and coordinates have been deposited in the Protein Data Bank (PDB; http://www.pdb.org) under the accession codes of 6PMF, 6POQ, 6POH, 6PML, 6PVY, 6POI, and 6PVZ.

In series [5] the target is T1, EcDsbA. As to the kind of experiment: waterLOGSY ligand-detected NMR binding. The conditions noted are these: compound 500 µM, unlabelled EcDsbA 10 µM, 298 K.
Source text: as §1, §2

In a further series the target is T2, 15N-labelled EcDsbA (Escherichia coli, UniProt P0AEG4).
T2 construct: made in house; protein recovered from the periplasm of the expressing cells
T2 sequence (P0AEG4 20-208): as above
As to the kind of experiment: 2D 1H-15N HSQC chemical shift perturbation / titration. The format is binding. The conditions noted are these: for Ligand Efficiency: LE = −RTln(KD)/HAC, 298 K. The protocol: Compounds that passed at least one ligand-detected NMR experiment were further validated by 2D ^1H-^15N heteronuclear single quantum coherence (HSQC) spectroscopy. In HSQC experiments, chemical shift perturbations (CSP) of backbone amide resonances of ^15N-labelled EcDsbA were measured upon addition of compound at 1 mM. […] In accordance with the crystal structure, the majority of the residues perturbed by 1 mM of benzofuran analogues in single-point HSQCs are located around the hydrophobic groove which is an important binding site for DsbA substrates (Figure 2A). […] Eight compounds produced large enough CSP (>0.04 ppm) to enable HSQC titration and KD determination.
For the 2D ^1H-^15N-HSQC titration experiment, 100 µM of ^15N-labelled EcDsbA in a buffer of 50 mM HEPES, pH 6.8, 50 mM NaCl, 2% ^2H6-DMSO, and 10% ^2H2O, was titrated with increasing concentrations of compounds ([…], 0.125, 0.25, 0.5, and 1 mM). Data were acquired on a Bruker 600 MHz spectrometer equipped with a 5 mm TXI CryoProbe and a Bruker 700 MHz spectrometer equipped with a 5 mm TXI CryoProbe. Data was processed by Topspin3.5 (Bruker) and analysed by Sparky (T. D. Goddard and D. G. Kneller, SPARKY 3, University of California, San Francisco (UCSF)). Weighted chemical shift perturbations (CSP) that were observed upon addition of compounds to EcDsbA were calculated using an Equation (1) in [41]: (1) CSP=ΔδH^2+(0.2×ΔδN)^2 where ΔδH and ΔδN denote the change in chemical shift of amide proton and nitrogen resonances upon addition of the compound. Equilibrium dissociation constants (KD) were determined by fitting the plot of CSP against compound concentrations using one site with ligand depletion model (Equation (2)): (2) CSP=CSPmax×[(KD+Pt+Lt)−((KD+Pt+Lt)^2−4×Pt×Lt)]/2×Pt where CSP is the measured CSP at a given concentration, CSPmax is the CSP observed at the saturating concentration of compound, and Pt and Lt are the total protein and compound concentrations. The ligand efficiency (LE) is calculated using the Equation (3) in [42]: (3) LE=−ΔG/HAC=−RTln(KD)/HAC where R is gas constant (1.9858775 cal K^−1 mol^−1), T is temperature (298 K), KD is equilibrium dissociation constant, and HAC is the number of heavy (non-hydrogen) atoms.

The structures appear in SMILES notation. Some results are limits rather than exact numbers.

Take `O=C(O)Cc1coc2cc(Nc3ccccc3)ccc12` [compound 15, 2-(6-(Phenylamino)benzofuran-3-yl)acetic acid]: the melting point was in the range of 127 to 130 °C. Besides, the solubility entry in series [1] is “poor solubility”. Further, the CPMG result at EcDsbA [2] is “Pass”. In addition, the STD entry on EcDsbA [3] was “Pass”. For the same molecule, the “Crystal Structure in EcDsbA” value on EcDsbA [4] is given as “Yes”. For the same molecule, on EcDsbA [5], the wLOGSY entry is recorded as “Pass”.
As for `CCCCOc1ccc2c(CC(=O)O)coc2c1` [compound 21, 2-(6-Butoxybenzofuran-3-yl)acetic acid], the melting point was in the range of 108 to 109 °C. Moreover, the CPMG result at EcDsbA [2] is “Pass”. Besides, at EcDsbA [3], the STD entry is recorded as “Pass”. Further, on 15N-labelled EcDsbA, the Kd came to 1970 ± 640 µM and the “Ligand Efficiency” value came to 0.20 kcal mol^−1 HAC^−1. In addition, the “fold decrease in binding affinity” value at 15N-labelled EcDsbA (relative to 25) is given as “six-fold decrease”. The “Crystal Structure in EcDsbA” value at EcDsbA [4] is “Yes”. In addition, the wLOGSY entry on EcDsbA [5] is “Pass”.
`O=C(Cc1ccccc1F)NC(C(=O)O)c1coc2cc(Br)ccc12` (stereo not drawn) [compound 49, 2-(6-Bromobenzofuran-3-yl)-2-(2-(2-fluorophenyl)acetamido)acetic acid] yielded a melting point of 209 to 211 °C. Also, the CPMG result on EcDsbA [2] is given as “Fail”. Besides, the STD result at EcDsbA [3] is on record as “Fail”. Further, at 15N-labelled EcDsbA, the Kd is greater than 1000 µM. Further, the “Crystal Structure in EcDsbA” value on EcDsbA [4] is recorded as “No”. Besides, at EcDsbA [5], the wLOGSY result is recorded as “Pass”.
Regarding `O=C(O)Cc1coc2cc(OCc3ccccc3)ccc12` [compound 23], the melting point lay in the range of 153 to 155 °C. For the same molecule, the CPMG result at EcDsbA [2] is given as “Pass”. Moreover, at EcDsbA [3], the STD result is given as “Pass”. In addition, on 15N-labelled EcDsbA, the Kd was 820 ± 140 µM and the “Ligand Efficiency” value was determined as 0.20 kcal mol^−1 HAC^−1. Moreover, the “Crystal Structure in EcDsbA” value at EcDsbA [4] was “Yes”. For the same molecule, the wLOGSY entry at EcDsbA [5] is listed as “Pass”.

One may read the melting point as the temperature of the solid-liquid transition. The term Kd denotes the constant that tells how readily two partners part at equilibrium.
